Literature values as cited in patent US7867523B2, “Pharmaceutical composition” (priority 2008, dated 2011).

Tests used:
[1] = system: influenza virus; details: administered six hours after infection and continued for twenty-four hours
[2] = system: immune cell types present in the blood; details: one gram daily for two weeks, patients
[3] = acute and long-term, animals, oral

## Oc1ccc(C=Cc2cc(O)cc(O)c2)cc1 [resveratrol, Resveratrol]
[1]
  antiviral effect (restricting ability of the virus to replicate): substantial

## O=C1O[C@H]([C@@H](O)CO)C(O)=C1O [vitamin C, Ascorbic acid]
[2]
  interferon-gama production by T cells: significantly more
  number of NK cells: increased
  number of T cells: remained the same

## Arabinogalactan
[3]
  toxicity: no evidence of toxicity
